According to US20100009017A1, “Anticancer Methods Using Extracts of Anemarrhena asphodeloides Bunge” (BIONOVO, INC., priority 2008, published 2010):

Columns and labels:
Type in all cases: cell-based
[1] = test system: REDD1; experiment: REDD1 induction in Du145 cells (FIG. 6); conditions: Du145 prostate cancer cells; BN108 0.5 mg/mL, Timosaponin A3 7.5 μM
Procedure: FIG. 6. Pro-apoptotic gene REDD1 is induced in prostate cancer cell line Du145 by treatment with BN108 (0.5 mg/ml) and Timosaponin A3 (7.5 μM). Both BN108 and Timosaponin A3 induce the pro-apoptotic gene REDD1 in prostate cancer cells.

[2] = test system: BT474 cells; experiment: Cell death in BT474 cells (FIG. 5, FIG. 15); conditions: for induction of cell death: BT474, 24 hr, BN108 0.5 mg/mL, Timosaponin A3 4 μg/mL, Timosaponin B2 50 μg/mL, lamarinase-treated Timosaponin B2 4 μg/mL
Procedure: FIG. 5. Effect of Timosaponins A3 and B2 on viability of breast cancer (BT474) and normal epithelial cells (MCF10A). Cells were treated with BN108 at 0.5 mg/ml, Timosaponin A3 at 4 μg/ml, or Timosaponin B2 at 50 μg/ml, inactivated lamarinase alone or lamarinase-treated B2 at 4 μg/ml for 24 hours.
FIG. 15. Conversion of Timosaponin B2 to Timosaponin A3 by lamarinase was confirmed by time of flight mass spectrometry (TOF MS). Disappearance of Timosaponin B2 and appearance of Timosaponin A3 results in an increase in cell death from 16% in the presence of inactivated lamarinase and Timosaponin B2 to 53% in the presence of activated lamarinase and Timosaponin B2.
The effect of Timosaponins A3 and B2 on the viability of breast cancer cells and normal epithelial cells was tested by treating cells with either 0.5 mg/mL BN108, 4 μg/mL Timosaponin A3, 50 μg/mL Timosaponin B2, inactivated lamarinase alone or lamarinase-treated Timosaponin B2 (4 μg/mL) for 24 hr. […] The difference in activity between Timosaponin A3 and lamarinase treated Timosaponin B2 is, on a molar basis, probably negligible, given that the quotient of the molecular weights of Timosaponin B2 (920 Da) and Timosaponin A3 (740 Da) is roughly equivalent to the ratio of the % dead cells in the Timosaponin A3 and the lamarinase-treated Timosaponin B2. Thus, it can be inferred that nearly all the Timosaponin B2 is converted into Timosaponin A3, and is active to induced apoptosis, in the presence of lamarinase.

[3] = test system: BT474 cells; experiment: FACScan propidium iodide / Annexin V viability and apoptosis (FIG. 9, table); conditions: for cells surviving: BT474, 24 hours; for % Difference from control: control = DMSO
Procedure: FIG. 9. […] BT474 cells were treated for 24 hours, and percent of live cells was analyzed on FACScan based on permeability of dead cells for propidium iodide and binding of Annexin V.
The cytotoxic effects of BN108 and Timosaponin A3 are attenuated by cholesterol (CHL) and the caspase 4 inhibitor LEVD. […] Treatment of BT474 cells with […] cholesterol protected the cells from the effects of Timosaponin A3 and BN108, with about 80% of the cells surviving 24 hours in the presence of cholesterol (CHL).

[4] = test system: SREBP2; experiment: SREBP2 activation in BT474 cells (FIG. 4B, FIG. 7); conditions: Timosaponin A3 5 μM, BN108 0.5 mg/mL
Procedure: FIG. 4. […] B. SREBP2 is activated by BN108 in both cell lines. Activated AKT was detected using antibody to phosphoserine 473 (Phospho-AKT) that is phosphorylated only in active kinase.
(§1) FIG. 7. Purified Timosaponin A3 and BN108 extract have similar effects on phosphorylation of eIF2a and on activation of SREBP2 as well as expression on SREBP2 target gene IDI1. BT474 cells were treated with TspA3 (5 μM) or BN108 (0.5 mg/ml).
In FIG. 4B, it can be seen that SREBP2 is activeated by BN108 in both the cancer cells (BT474) and the non-cancerous cells (MCF10A).
Both BN108 and Timosaponin A3 induce the pro-apoptotic gene REDD1 in prostate cancer cells.

[5] = test system: eIF2a; experiment: Phosphorylation of eIF2a in BT474 cells (FIG. 7); conditions: Timosaponin A3 5 μM, BN108 0.5 mg/mL
Procedure: as §1, with “mg/ml). Both BN108 and Timosaponin A3 induce the pro-apoptotic gene REDD1 in prostate cancer cells.” for “mg/ml).”

[6] = test system: MM23 breast cancer cells; experiment: Cholesterol content of cell extracts (FIG. 8); conditions: cancerous (MM23) breast cells
Procedure: (§2) FIG. 8. Purified Timosaponin A3 and BN108 extract have similar effects on cholesterol synthesis on breast cancer cells MM23 and normal MCF10A cells. Cells were treated with either BN108 or TspA3 for indicated times, and cell extracts were analyzed for cholesterol content, which was normalized to the protein content.
(§3) BN108 and Timosaponin A3 had similar effects on cholesterol (CHL) synthesis in cancerous and normal cells.

[7] = test system: MCF10A cells; experiment: Cholesterol content of cell extracts (FIG. 8); conditions: normal (MCF10A) breast cells, through the first 8 hours after treatment
Procedure: as §2, §3

[8] = test system: non-cancerous cells; experiment: Induction of apoptosis in vitro
[9] = test system: IDI1; experiment: Expression of SREBP2 target gene IDI1 in BT474 cells (FIG. 7); conditions: Timosaponin A3 5 μM, BN108 0.5 mg/mL
Procedure: as §1, with “mg/ml). Both BN108 and Timosaponin A3 induce the pro-apoptotic gene REDD1 in prostate cancer cells.” for “mg/ml).”

[10] = test system: cancer cells; experiment: Induction of apoptosis in vitro

SMILES: CC1CCC2(OC1)OC1CC3C4CCC5CC(OC6OC(CO)C(O)C(O)C6OC6OC(CO)C(O)C(O)C6O)CC[C@]5(C)C4CC[C@]3(C)[C@H]1[C@@H]2C (stereo partly shown) [Timosaponin A3]
- REDD1 gene induction [1]: induced
- induction of cell death [2]: induced cell death
- % Total apoptotic [3]: 68%
- % early apoptotic [3]: 35%
- % late apoptotic [3]: 33%
- cells surviving [3]: 40%
- cells surviving ([3]; with 250 mM cholesterol (CHL)): about 80%
- % Difference from control [3]: 57%
- expression of SREBP2 [4]: increase expression of SREBP2
- phosphorylation of eIF2a [5]: increase phosphorylation of elF2a
- cholesterol synthesis [6]: increase cholesterol synthesis slightly
- cholesterol synthesis [7]: reduce cholesterol synthesis
- induction of apoptosis [8]: does not induce apoptosis
- expression of IDI1 [9]: increase expression of IDI1
- induction of apoptosis [10]: induces of apoptosis

SMILES: C[C@@H](CCC1(O)O[C@H]2C[C@H]3[C@@H]4CC[C@@H]5C[C@@H](O[C@@H]6O[C@H](CO)[C@H](O)[C@H](O)[C@H]6O[C@@H]6O[C@H](CO)[C@@H](O)[C@H](O)[C@H]6O)CC[C@]5(C)[C@H]4CC[C@]3(C)[C@H]2[C@@H]1C)CO[C@@H]1O[C@H](CO)[C@@H](O)[C@H](O)[C@H]1O (stereo partly shown) [Timosaponin B2]
- induction of cell death [2]: did not induce cell death
- cell death ([2]; in the presence of inactivated lamarinase (FIG. 15)): 16%
- % Total apoptotic [3]: 12%
- % early apoptotic [3]: 7%
- % late apoptotic [3]: 5%
- % Difference from control [3]: 1%
- induction of apoptosis [10]: does not induce apoptosis
